Data: ChEMBL document CHEMBL5360672, “Identification of Novel Dual-Target Estrogen Receptor α Degraders with Tubulin Inhibitory Activity for the Treatment of Endocrine-Resistant Breast Cancer” (J Med Chem, 2023)
Activity calls are given as the source filed them. No cut-off for these calls is given here.

Experiments:
[1] = target: T1, Estrogen receptor (Homo sapiens) (UniProt P03372); assay: Binding affinity to human ERalpha assessed as relative binding affinity incubated under vibration for 1 min followed by 2 hrs incubation under dark condition by fluorescence polarization assay relative to estradiol; details: time 121.0 min
T1 sequence (whole entry): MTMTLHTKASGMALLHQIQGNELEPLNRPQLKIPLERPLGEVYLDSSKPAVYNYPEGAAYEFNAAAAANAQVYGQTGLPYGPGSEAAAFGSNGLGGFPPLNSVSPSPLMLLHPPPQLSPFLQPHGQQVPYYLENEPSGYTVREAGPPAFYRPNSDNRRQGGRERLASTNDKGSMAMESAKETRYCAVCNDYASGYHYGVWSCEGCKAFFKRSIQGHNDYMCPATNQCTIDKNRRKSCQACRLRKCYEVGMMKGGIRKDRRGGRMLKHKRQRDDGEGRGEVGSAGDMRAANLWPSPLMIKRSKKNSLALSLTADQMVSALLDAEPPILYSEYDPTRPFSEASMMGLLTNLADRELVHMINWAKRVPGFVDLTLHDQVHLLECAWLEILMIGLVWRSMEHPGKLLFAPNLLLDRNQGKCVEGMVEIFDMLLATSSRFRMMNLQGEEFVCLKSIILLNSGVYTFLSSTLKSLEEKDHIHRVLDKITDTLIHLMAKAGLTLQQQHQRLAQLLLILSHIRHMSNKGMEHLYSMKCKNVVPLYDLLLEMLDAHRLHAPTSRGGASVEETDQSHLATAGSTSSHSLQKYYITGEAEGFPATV

[2] = Antiproliferative activity against human Tamoxifen-resistant LCC2 cells assessed as inhibition of cell proliferation incubated for 72 hrs by CCK8 assay; format: functional, cell-based
[3] = target: Estrogen receptor beta (Homo sapiens) (UniProt Q92731); assay: Binding affinity to human ERbeta assessed as relative binding affinity incubated under vibration for 1 min followed by 2 hrs incubation under dark condition by fluorescence polarization assay relative to estradiol; details: time 121.0 min
Estrogen receptor beta (Homo sapiens), sequence (Q92731 whole entry): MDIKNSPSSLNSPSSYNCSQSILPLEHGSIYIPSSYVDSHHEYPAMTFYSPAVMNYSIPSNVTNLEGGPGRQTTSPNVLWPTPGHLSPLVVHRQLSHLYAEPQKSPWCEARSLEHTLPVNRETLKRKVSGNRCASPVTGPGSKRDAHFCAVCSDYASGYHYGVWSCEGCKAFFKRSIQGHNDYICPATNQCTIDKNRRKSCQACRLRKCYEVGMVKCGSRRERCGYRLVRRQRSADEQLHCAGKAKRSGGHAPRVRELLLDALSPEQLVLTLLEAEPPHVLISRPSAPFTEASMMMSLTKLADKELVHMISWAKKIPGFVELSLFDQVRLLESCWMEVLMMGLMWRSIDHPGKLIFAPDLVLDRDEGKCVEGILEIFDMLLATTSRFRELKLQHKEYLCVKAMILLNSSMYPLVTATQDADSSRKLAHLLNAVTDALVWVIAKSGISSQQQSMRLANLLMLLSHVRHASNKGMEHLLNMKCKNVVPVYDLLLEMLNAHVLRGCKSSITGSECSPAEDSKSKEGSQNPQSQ

[4] = test system: T47D; assay: Antiproliferative activity against human T47D cells harboring ERalpha D538G mutant assessed as inhibition of cell proliferation incubated for 72 hrs by CCK8 assay; format: functional, cell-based
[5] = organism: Homo sapiens; assay: Selectivity ratio of relative binding affinity for human ERalpha to relative binding affinity to human ERbeta
[6] = Cytotoxicity against human MCF-10A cells assessed as inhibition of cell proliferation incubated for 72 hrs by CCK8 assay; format: toxicity, cell-based
[7] = Selectivity index, ratio of IC50 for cytotoxicity against human MCF-10A cells to IC50 for antiproliferative activity against human MCF7 cells; format: toxicity, cell-based; details: MCF-10A cells and MCF7 cells, read-out: Ratio IC50
[8] = test system: T47D; assay: Antiproliferative activity against ERalpha positive human T47D cells assessed as inhibition of cell proliferation incubated for 72 hrs by CCK8 assay; format: functional, cell-based
[9] = test system: T47D; assay: Antiproliferative activity against human T47D cells harboring ERalpha Y537S mutant assessed as inhibition of cell proliferation incubated for 72 hrs by CCK8 assay; format: functional, cell-based
[10] = target: T2, Tubulin (Homo sapiens) (UniProt P68371+Q9H4B7+P0DPH7+P68366+Q13509+Q71U36+P04350+Q3ZCM7+P07437+P68363+Q9BQE3+Q6PEY2+Q13885+Q9BVA1+Q9BUF5); assay: Inhibition of tubulin polymerization (unknown origin) at 30 uM incubated for 60 mins by microplate reader analysis; format: protein-complex assay
[11] = test system: MCF7; assay: Antiproliferative activity against ERalpha positive human MCF7 cells assessed as inhibition of cell proliferation incubated for 72 hrs by CCK8 assay; format: functional, cell-based; details: MCF7, 72 h
[12] = test system: MDA-MB-231; assay: Antiproliferative activity against ERalpha negative human MDA-MB-231 cells assessed as inhibition of cell proliferation incubated for 72 hrs by CCK8 assay; format: functional, cell-based; details: MDA-MB-231, 72 h
[13] = test system: MCF7; assay: Induction of cell cycle arrest in human MCF7 cells assessed as increase in G2/M phase cells at 0 to 8 uM incubated for 48 hrs by flow cytometry analysis (reference value: 17.45%); format: functional; details: dose 0-8 µM
[14] = target: T2, Tubulin (Homo sapiens); assay: Disruption of microtubule network in human LCC2 cells assessed as ruptured microtubule network at 4 uM incubated for 48 hrs by DAPI staining based confocal laser scanning microscopic analysis; format: cell-based
[15] = target: T3, Estrogen receptor (Homo sapiens, UniProt P03372); assay: Antagonist activity at ERalpha (unknown origin) expressed in HEK293T cells co-expressing ERbeta and ERE-luciferase reporter assessed as reduction in relative light unit incubated for 24 hrs by dual-luciferase reporter assay; format: cell-based
T3 sequence (P03372 whole entry): T1 sequence (whole entry)

[16] = test system: LCC2; assay: Induction of cell cycle arrest in human LCC2 cells assessed as accumulation of cells at G2/M phase incubated for 48 hrs by flow cytometry analysis; format: functional, cell-based; details: dose 6-24 µM
[17] = target: T2, Tubulin (Homo sapiens); assay: Disruption of microtubule network in human MCF7 cells assessed as chaotic microtubule network at 2 uM incubated for 48 hrs by DAPI staining based confocal laser scanning microscopic analysis; format: cell-based
[18] = target: T2, Tubulin (Homo sapiens); assay: Disruption of microtubule network in human MCF7 cells assessed as ruptured microtubule network at 2 uM incubated for 48 hrs by DAPI staining based confocal laser scanning microscopic analysis; format: cell-based
[19] = target: T2, Tubulin (Homo sapiens); assay: Disruption of microtubule network in human LCC2 cells assessed as chaotic microtubule network at 4 uM incubated for 48 hrs by DAPI staining based confocal laser scanning microscopic analysis; format: cell-based
[20] = target: T1, Estrogen receptor (Homo sapiens); assay: Induction of ERalpha degradation in human MCF7 cells at 5 uM incubated for 24 hrs by Western blot analysis; format: cell-based

COc1ccc(N(CC(F)(F)F)S(=O)(=O)C2CC3OC2C(c2ccc(O)cc2)=C3c2ccc(O)cc2)cc1 (configuration not stated)
RBA [1]: 0.76%
IC50 [2]: 5.16 µM
RBA [3]: 0.06%
IC50 [4]: 7.25 µM
Selectivity ratio [5]: 12.7
IC50 at 72 h [6]: 20.4 µM
selectivity ratio [7]: 88.6
IC50 [8]: 6.92 µM
IC50 [9]: 12.7 µM
tubulin polymerization inhibition (active/not active) [10]: inactive
IC50 [11]: 0.23 µM

N#C[Se]CCCCCC(=O)Nc1ccc(C2=C(c3ccc(O)cc3)C3CC(S(=O)(=O)Oc4ccccc4F)C2O3)cc1 (configuration not stated)
RBA [1]: 17.4%
IC50 [12]: 3.4 µM
Activity [13]: 27.55%
IC50 [2]: 6.13 µM
RBA [3]: 0.39%
IC50 [4]: 1.47 µM
Activity [14]: Active
Selectivity ratio [5]: 44.5
IC50 at 72 h [6]: 17.6 µM
IC50 [15]: 1.01 µM
selectivity ratio [7]: 63
Activity [16]: Dose-Dependent Effect
Activity [17]: Active
Activity [18]: Active
IC50 [8]: 0.85 µM
IC50 [9]: 1.56 µM
Activity [19]: Active
tubulin polymerization inhibition (active/not active) [10]: Active
IC50 [11]: 0.28 µM

N#C[Se]CCCCCC(=O)Nc1ccccc1
Activity [20]: inactive
RBA [1]: 0.04%
IC50 [12]: 0.36 µM
RBA [3]: 0.01%
Selectivity ratio [5]: 7
IC50 at 72 h [6]: 2.26 µM
selectivity ratio [7]: 0.64
IC50 [8]: 4.28 µM
tubulin polymerization inhibition (active/not active) [10]: Active
IC50 [11]: 3.54 µM

O=S(=O)(Oc1ccccc1)C1CC2OC1C(c1ccc(O)cc1)=C2c1ccc(O)cc1 (configuration not stated)
Activity [20]: inactive
IC50 [2]: 25 µM
IC50 [4]: > 31 µM
IC50 at 72 h [6]: > 60 µM
selectivity ratio [7]: > 4.11
IC50 [8]: > 31 µM
tubulin polymerization inhibition (active/not active) [10]: inactive
